Test results as given in US7112586B2, “Substituted diamine derivatives useful as motilin antagonists” (Ortho-McNeil Pharmaceutical, Inc., priority 2000, dated 2006).

The compounds below were run against T1, Motilin Receptor (Oryctolagus cuniculus, UniProt G1T803) (assay: Motilin receptor binding, rabbit colon membranes, 125I porcine motilin). Conditions: not given.
T1 construct: The muscle tissue was homogenized in 10 volumes of 50 mM Tris-Cl; from tissue; host or cells: rabbit colon smooth muscle, crude membrane homogenate
T1 sequence (G1T803 1-400): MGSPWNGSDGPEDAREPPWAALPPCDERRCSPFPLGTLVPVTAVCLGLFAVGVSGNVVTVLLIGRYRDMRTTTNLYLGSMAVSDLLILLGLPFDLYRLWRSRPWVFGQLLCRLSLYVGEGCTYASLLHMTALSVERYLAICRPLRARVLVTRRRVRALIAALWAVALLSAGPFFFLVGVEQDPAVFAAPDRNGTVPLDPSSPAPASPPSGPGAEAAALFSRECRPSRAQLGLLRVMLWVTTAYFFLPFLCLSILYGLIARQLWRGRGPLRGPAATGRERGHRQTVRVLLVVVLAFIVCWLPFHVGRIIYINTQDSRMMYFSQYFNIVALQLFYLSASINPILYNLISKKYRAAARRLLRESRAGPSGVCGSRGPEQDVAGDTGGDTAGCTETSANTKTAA
Design: Rabbit Colon % Inh / inhibition / % Inh (Rabbit colon): dose or concentration left out as unconfirmed
Method: Rabbit colon was removed, dissected free from the mucosa and serosa, and diced into small pieces. The muscle tissue was homogenized in 10 volumes of 50 mM Tris-Cl, 10 mM MgCl2, 0.1 mg/ml bacitracin, and 0.25 mM Peflabloc, at pH 7.5 in a Polytron (29000 rpm, 4×15 seconds). The homogenate was centrifuged at 1000×g for 15 minutes and the supernatant discarded. The pellet was washed twice before being suspended in homogenizing buffer. The crude homogenate was resuspended through a 23 gauge needle before storing at −80° C. […] After 60 minutes at 30° C., the samples were cooled in ice, centrifuged in the cold at 13000×g for 1 minute. The pellet was washed twice with 1 ml of cold saline, the supernatant was aspirated, and the pellet at the bottom of the tube counted in a gamma counter. Non-specific binding was determined by the inclusion of 1 mM of unlabeled motilin. IC50 values were determined from Kaleidograph curves.
With `O=C(CCCN(C(=O)c1ccc(F)cc1)c1cccc(OCCN2CCOCC2)c1)N(CCc1ccccc1)Cc1ccccc1` [compound 4] the IC50 was 690 nM.

Same assay, conditions: rabbit colon membranes
For `CN(CCOc1cccc(N(CC2CCCC(N(Cc3cccc(Cl)c3)C(=O)C(C)(C)C)C2)C(=O)c2ccc(F)cc2)c1)Cc1ccccc1` (racemic) [compound 232], the “Rabbit Colon % Inh” value was 62%. `CN1CCCC1CCOc1cccc(N(CC2CCCC(N(Cc3cccc(Cl)c3)C(=O)C(C)(C)C)C2)C(=O)c2ccc(F)cc2)c1` (racemic) [compound 235] was tested, and the “Rabbit Colon % Inh” value was 61%. For `CN1CCCC1CCOc1cccc(N(CC2CCCC(N(Cc3cccc(Cl)c3)C(=O)C(Cl)(Cl)Cl)C2)C(=O)c2ccc(F)cc2)c1` (racemic) [compound 236], the “Rabbit Colon % Inh” value was 53%. With `Cc1ccc(S(=O)(=O)N(CCCC(=O)N(CCc2ccccc2)Cc2ccccc2)c2cccc(OCCN3CCOCC3)c2)cc1` [compound 2] the “Rabbit Colon % Inh” value was 9%. In the case of `Cc1ccc(C(=O)N(CCCC(=O)N(CCc2ccccc2)Cc2ccccc2)c2cccc(OCCN3CCOCC3)c2)cc1` [compound 3], the “Rabbit Colon % Inh” value is reported as 35%. In the case of `O=C(CCCCN(C(=O)Nc1ccccc1)c1cccc(OCCN2CCOCC2)c1)N(CCc1ccccc1)Cc1ccccc1` [compound 5], the “Rabbit Colon % Inh” value is reported as 40%. In the case of `Cc1ccc(C(=O)N(CCCCC(=O)N(CCc2ccccc2)Cc2ccccc2)c2cccc(OCCN3CCOCC3)c2)cc1` [compound 6], the “Rabbit Colon % Inh” value is reported as 24%. In the case of `O=C(CCCCN(C(=O)c1ccc(F)cc1)c1cccc(OCCN2CCOCC2)c1)N(CCc1ccccc1)Cc1ccccc1` [compound 7], the “Rabbit Colon % Inh” value is reported as 42%. For `CCN(Cc1ccccc1)C(=O)CCCN(C(=O)Nc1ccccc1)c1cccc(OCCN2CCOCC2)c1` [compound 8], the “Rabbit Colon % Inh” value was 18%. For `CCN(Cc1ccccc1)C(=O)CCCN(c1cccc(OCCN2CCOCC2)c1)S(=O)(=O)c1ccc(C)cc1` [compound 9], the “Rabbit Colon % Inh” value was 27%. For `CCN(Cc1ccccc1)C(=O)CCCN(C(=O)c1ccc(C)cc1)c1cccc(OCCN2CCOCC2)c1` [compound 10], the “Rabbit Colon % Inh” value was 29%. With `CCN(Cc1ccccc1)C(=O)CCCN(C(=O)c1ccc(F)cc1)c1cccc(OCCN2CCOCC2)c1` [compound 11] the “Rabbit Colon % Inh” value was 0%. `CCN(Cc1ccccc1)C(=O)CCCCN(c1cccc(OCCN2CCOCC2)c1)S(=O)(=O)c1ccc(C)cc1` [compound 12] was tested, and the “Rabbit Colon % Inh” value was 4%. `CCN(Cc1ccccc1)C(=O)CCCCN(C(=O)c1ccc(C)cc1)c1cccc(OCCN2CCOCC2)c1` [compound 13] was tested, and the “Rabbit Colon % Inh” value was 21%. `CCN(Cc1ccccc1)C(=O)CCCCN(C(=O)c1ccc(F)cc1)c1cccc(OCCN2CCOCC2)c1` [compound 14] was tested, and the “Rabbit Colon % Inh” value was 25%. `CN(Cc1ccccc1)C(=O)CCCN(C(=O)Nc1ccccc1)c1cccc(OCCN2CCOCC2)c1` [compound 15] was tested, and the “Rabbit Colon % Inh” value was 21%. With `Cc1ccc(S(=O)(=O)N(CCCC(=O)N(C)Cc2ccccc2)c2cccc(OCCN3CCOCC3)c2)cc1` [compound 16] the “Rabbit Colon % Inh” value was 21%. `Cc1ccc(C(=O)N(CCCC(=O)N(C)Cc2ccccc2)c2cccc(OCCN3CCOCC3)c2)cc1` [compound 17] was tested, and the “Rabbit Colon % Inh” value was 12%. In the case of `CN(Cc1ccccc1)C(=O)CCCN(C(=O)c1ccc(F)cc1)c1cccc(OCCN2CCOCC2)c1` [compound 18], the “Rabbit Colon % Inh” value is reported as 0%. For `CN(Cc1ccccc1)C(=O)CCCCN(C(=O)Nc1ccccc1)c1cccc(OCCN2CCOCC2)c1` [compound 19], the “Rabbit Colon % Inh” value was 5%.

Same assay, conditions: rabbit colon membranes; read-out: Rabbit Colon % Inh
In the case of `O=C(CCCN(C(=O)Nc1ccccc1)c1cccc(OCCN2CCOCC2)c1)N(CCc1ccccc1)Cc1ccccc1` [compound 1], the inhibition is reported as 35%.

Same assay, conditions: rabbit colon membranes; read-out: Rabbit Colon IC50
Work on `O=C(c1ccc(F)cc1)N(C[C@H]1CCC[C@@H](N(Cc2cccc(Cl)c2)C(=O)C(Cl)(Cl)Cl)C1)c1cccc(OCCN2CCCCC2)c1` [ID 239] yielded an IC50 of 73 nM.

Same assay, conditions: read-out: Rabbit Colon % Inh
In the case of `O=C(CCCN(C(=O)c1ccc(F)cc1)c1cccc(OCCN2CCOCC2)c1)N(CCc1ccccc1)Cc1ccccc1` [compound 4], the inhibition is reported as 75%.
